# Laboratory results as given in patent US5523315A, “N-(hydroxyethyl)butanediamide derivatives” (Bio-Mega/Boehringer Ingelheim Research Inc., priority 1993, dated 1996).
# Molecular target: T1, human renin (Homo sapiens, UniProt P00797)
# T1 construct: A human plasma pool is used as the source of both the substrate (angiotensinogen) and the enzyme (renin); from tissue; host or cells: pooled human plasma
# T1 sequence (P00797 67-406): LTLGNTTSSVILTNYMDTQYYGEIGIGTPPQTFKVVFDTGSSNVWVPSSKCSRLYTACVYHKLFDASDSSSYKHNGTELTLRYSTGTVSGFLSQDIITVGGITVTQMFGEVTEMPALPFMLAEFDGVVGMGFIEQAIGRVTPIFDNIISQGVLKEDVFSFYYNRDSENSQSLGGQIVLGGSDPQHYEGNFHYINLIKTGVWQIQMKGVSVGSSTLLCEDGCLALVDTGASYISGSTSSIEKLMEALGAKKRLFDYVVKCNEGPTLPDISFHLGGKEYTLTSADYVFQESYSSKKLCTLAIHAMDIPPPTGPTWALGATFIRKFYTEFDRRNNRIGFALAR
# Experiment: plasma renin assay (inhibition of human renin; angiotensin I generated, measured by radioimmunoassay)
# Format: biochemical
# Settings: human plasma pool, pH 6.0, 2 h incubation at 37°
# Procedure: The assay is performed as follows: The test compound (i.e. the inhibitor) is dissolved in dimethylsulfoxide (1 mM stock solution) and diluted with an aqueous buffer solution of 270 mM 2-(N-morpholino)ethanesulfonic acid and 1% human serum albumin (pH 5.85, also containing dimercaprol and 8-hydroxyquinoline sulfate in accordance with the instructions of the RIA kit noted below) to give an assay mixture in which the final dimethylsulfoxide content is 1% (v/v).
# A human plasma pool is used as the source of both the substrate (angiotensinogen) and the enzyme (renin). The reaction is initiated by the addition of 50 μL of human plasma pool to 50 μL of various concentrations of inhibitor in the 1% dimethylsulfoxide assay buffer. The plasma renin activity is measured by the amount of angiotensin I generated at pH 6.0 following a 2 h incubation at 37°.
# Quantitation of angiotensin I is performed by radioimmunoassay (RIA kit from New England Nuclear-Dupont, Mississauga, ON, Canada). The enzymatic activity of renin is expressed in ng of angiotensin I generated (/mL/2 h). The extent of inhibition of the reaction is determined from the amount of angiotensin I generated in reference to a control prepared without inhibitor. Nonlinear regression analysis is used to calculate the IC50 values, i.e. the molar concentration of the test compound required to cause a 50% inhibition of the enzyme activity.
row,SMILES,IC50
1,"CC(C)C[C@H](O)[C@H](O)[C@H](CC1CCCCC1)NC(=O)[C@@H](CC(=O)N(CC(=O)C(C)C)CC1CCCCC1)Cc1csc(N)n1 [Compound 63, N^4-(cyclohexylmethyl)-N^4-(3-methyl-2-oxobutyl)-N^1-[1(S)-(cyclohexylmethyl)-2(R),3(S)-dihydroxy-5-methylhexyl]-2(R)-[(2-amino-4-thiazolyl)methyl]butanediamide]",5 nM
2,"CCC[C@H](CC(=O)N(Cc1ccccc1)CC1(O)CCCCC1)C(=O)N[C@@H](CC1CCCCC1)[C@@H](O)[C@@H](O)CC(C)C [Compound 2, N^4-benzyl-N^4-[(1-hydroxycyclohexyl)methyl]-N^1-[1(S)-(cyclohexylmethyl)-2(R),3(S)-dihydroxy-5-methylhexyl]-2(R)-propylbutanediamide]",27 nM
3,"CC(C)C[C@H](O)[C@H](O)[C@H](CC1CCCCC1)NC(=O)[C@@H](CC(=O)N(C)CC1(O)CCCCC1)CC1CC1 [Compound 6, N^4-[(1-hydroxycyclohexyl)methyl]-N^4-methyl-N^1-[1(S)-(cyclohexylmethyl)-2(R),3(S)-dihydroxy-5-methylhexyl]-2(R)-(cyclopropylmethyl)butanediamide]",38 nM
4,CC(C)C[C@H](O)[C@H](O)[C@H](CC1CCCCC1)NC(=O)[C@@H](CC(=O)N(Cc1ccccc1)CC1(O)CCCCC1)Cc1c[nH]cn1 [Compound 28],53 nM
5,"CC(C)C[C@H](O)[C@H](O)[C@H](CC1CCCCC1)NC(=O)[C@@H](CC(=O)N(Cc1ccccc1)CC(C)(C)O)Cc1csc(N)n1 [Compound 54, N^4-benzyl-N^4-(2-hydroxy-2-methylpropyl)-N^1-[1(S)-(cyclohexylmethyl)-2(R),3(S)-dihydroxy-5-methylhexyl]-2(R)-[(2-amino-4-thiazolyl)methyl]-butanediamide]",26 nM
6,"CC(C)C[C@H](O)[C@H](O)[C@H](CC1CCCCC1)NC(=O)[C@@H](CC(=O)N[C@@H](CO)[C@@H](O)c1ccccc1)CC1CC1 [Compound 18, N^4-[2(S)-hydroxy-1(S)-(hydroxymethyl)-2-phenylethyl]-N^1-[1(S)-(cyclohexylmethyl)-2(R),3(S)-dihydroxy-5-methylhexyl]-2(R)-(cyclopropylmethyl)butanediamide]",95 nM
7,"CC(C)C[C@H](O)[C@H](O)[C@H](CC1CCCCC1)NC(=O)[C@@H](CC(=O)N[C@H](CO)Cc1ccccc1)CC1CC1 [Compound 14, N^4-(S)-[1-(hydroxymethyl)-2-phenylethyl]-N^1-[1(S)-(cyclohexylmethyl)-2(R),3(S)-dihydroxy-5-methylhexyl]-2(R)-(cyclopropylmethyl)butanediamide]",79 nM
8,"CC(C)C[C@H](O)[C@H](O)[C@H](CC1CCCCC1)NC(=O)[C@@H](CC(=O)N(CC1CCCC1)CC(C)(C)O)Cc1csc(N)n1 [Compound 47, N^4-(cyclopentylmethyl)-N^4-(2-hydroxy-2-methylpropyl)-N^1-[1(S)-(cyclohexylmethyl)-2(R),3(S)-dihydroxy-5-methylhexyl]-2(R)-[(2-amino-4-thiazolyl)methyl]butanediamide]",7 nM
9,"CC(C)C[C@H](O)[C@H](O)[C@H](CC1CCCCC1)NC(=O)[C@@H](CC(=O)NC[C@@H](O)C1CCCCC1)CC1CC1 [Compound 20 (S), N^4-(S)-(2-cyclohexyl-2-hydroxyethyl)-N^1-[1(S)-(cyclohexylmethyl)-2(R),3(S)-dihydroxy-5-methylhexyl]-2(R)-(cyclopropylmethyl)butanediamide]",150 nM
10,"CC(C)C[C@H](O)[C@H](O)[C@H](CC1CCCCC1)NC(=O)[C@@H](CC(=O)N(CC(=O)N(C)CCc1ccccn1)CC1(O)CCCCCC1)Cc1csc(N)n1 [Compound 59, N^4-[(1-hydroxycycloheptyl)methyl]-N^4 -{2-{methyl[2-(2-pyridinyl)ethyl]amino}-2-oxoethyl}-N^1-[1(S)-(cyclohexylmethyl)-2(R),3(S)-dihydroxy-5-methylhexyl]-2(R)-[(2-amino-4-thiazolyl)methyl]butanediamide]",1.5 nM
11,"CC(C)C[C@H](O)[C@H](O)[C@H](CC1CCCCC1)NC(=O)[C@@H](CC(=O)N(CC(=O)N(C)CCc1ccccn1)CC1(O)CCCCC1)Cc1csc(N)n1 [Compound 49, N^4-[(1-hydroxycyclohexyl)methyl]-N^4 -{2-{methyl[2-(2-pyridinyl)ethyl]amino}-2-oxoethyl}-N^1-[1(S)-(cyclohexylmethyl)-2(R),3(S)-dihydroxy-5-methylhexyl]-2(R)-[(2-amino-4-thiazolyl)methyl]butanediamide]",2 nM
12,"CC(C)C[C@H](O)[C@H](O)[C@H](CC1CCCCC1)NC(=O)[C@@H](CC(=O)N[C@@H](CO)Cc1ccccc1)CC1CC1 [Compound 13, N^4-(R)-[1-(hydroxymethyl)-2-phenylethyl]-N^1-[1(S)-(cyclohexylmethyl)-2(R),3(S)-dihydroxy-5-methylhexyl]-2(R)-(cyclopropylmethyl)butanediamide]",89 nM
13,"CC(C)C[C@H](O)[C@H](O)[C@H](CC1CCCCC1)NC(=O)[C@@H](CC(=O)N(CC(C)O)CC1CCCCC1)Cc1cscn1 (single isomer, unassigned) [Compound 40, N^4-(cyclohexylmethyl)-N^4-[2(S or R)-hydroxypropyl]-N^1-[1(S)-(cyclohexylmethyl)-2(R),3(S)-dihydroxy-5-methylhexyl]-2(R)-(4-thiazolylmethyl)butanediamide]",11 nM
14,"CC(C)C[C@H](O)[C@H](O)[C@H](CC1CCCCC1)NC(=O)[C@@H](CC(=O)N(CC(=O)N(C)C)CC1(O)CCCCC1)Cc1c[nH]cn1 [Compound 24, N^4-[(1-hydroxycyclohexyl)methyl]-N^4-[2-(dimethylamino)-2-oxoethyl]-N^1-[1(S)-(cyclohexylmethyl)-2(R),3(S)-dihydroxy-5-methylhexyl]-2(R)-(1H-imidazol-4-ylmethyl)-butanediamide]",1.8 nM
15,"CC(C)C[C@H](O)[C@H](O)[C@H](CC1CCCCC1)NC(=O)[C@@H](CC(=O)N(Cc1ccccc1)C[C@H](O)c1ccccc1)CC1CC1 [Compound 11, N^4-benzyl-N^4-(R)-(2-hydroxy-2-phenylethyl)-N^1-[1(S)-(cyclohexylmethyl)-2(R),3(S)-dihydroxy-5-methylhexyl]-2(R)-(cyclopropylmethyl)butanediamide]",110 nM
16,"CC(C)C[C@H](O)[C@H](O)[C@H](CC1CCCCC1)NC(=O)[C@@H](CC(=O)N(CCc1ccccn1)CC1(O)CCCCC1)CC1CC1 [Compound 7, N^4-[(1-hydroxycyclohexyl)methyl]-N^4-[2-(2-pyridinyl)ethyl]-N^1-[1(S)-(cyclohexylmethyl)-2(R),3(S)-dihydroxy-5-methylhexyl]-2(R)-(cyclopropylmethyl)butanediamide]",53 nM
17,"CC(C)C[C@H](O)[C@H](O)[C@H](CC1CCCCC1)NC(=O)[C@@H](CC(=O)N(CC1CCCC1)CC(C)(C)O)Cc1cscn1 [Compound 50, N^4-(cyclopentylmethyl)-N^4-(2-hydroxy-2-methylpropyl)-N^1-[1(S)-(cyclohexylmethyl)-2(R),3(S)-dihydroxy-5-methylhexyl]-2(R)-(4-thiazolylmethyl)butanediamide]",13 nM
18,"CC(C)C[C@H](O)[C@H](O)[C@H](CC1CCCCC1)NC(=O)[C@@H](CC(=O)N(CC1CC1)CC1(O)CCCCC1)CC1CC1 [Compound 16, N^4-(cyclopropylmethyl)-N^4-[(1-hydroxycyclohexyl)methyl]-N^1-[1(S)-(cyclohexylmethyl)-2(R),3(S)-dihydroxy-5-methylhexyl]-2(R)-(cyclopropylmethyl)butanediamide]",89 nM
19,"CC(C)C[C@H](O)[C@H](O)[C@H](CC1CCCCC1)NC(=O)[C@@H](CC(=O)NC[C@H](O)c1ccccc1)CC1CC1 [Compound 9, N^4-(R)-(2-hydroxy-2-phenylethyl)-N^1-[1(S)-(cyclohexylmethyl)-2(R),3(S)-dihydroxy-5-methylhexyl]-2(R)-(cyclopropylmethyl)butanediamide]",72 nM
20,"CC(C)C[C@H](O)[C@H](O)[C@H](CC1CCCCC1)NC(=O)[C@@H](CC(=O)N(Cc1cccnc1)CC1(O)CCCCC1)CC1CC1 [Compound 26, N^4-[(1-hydroxycyclohexyl)methyl]-N^4-(3-pyridinylmethyl)-N^1-[1(S)-(cyclohexylmethyl)-2(R),3(S)-dihydroxy-5-methylhexyl]-2(R)-(cyclopropylmethyl)butanediamide]",26 nM
21,"CC(C)C[C@H](O)[C@H](O)[C@H](CC1CCCCC1)NC(=O)[C@@H](CC(=O)NCC(O)c1ccccc1)CC1CC1 (stereo partly drawn) [Compound 10, N^4-(R,S)-(2-hydroxy-2-phenylethyl)-N^1-[1(S)-(cyclohexylmethyl)-2(R),3(S)-dihydroxy-5-methylhexyl]-2(R)-(cyclopropylmethyl)butanediamide]",74 nM
